Experimental data taken from patent publication US8431593B2, “Heteroaryl amide derivatives” (H. Lundbeck A/S, priority 2006, dated 2013).

biological target: T1, P2X7 receptor (Homo sapiens, UniProt Q99572); experiment: P2X7 calcium mobilization assay, high throughput, antagonist activity (Example 4A); assay type: cell-based; conditions: P2X7 calcium mobilization, Example 4A; 50% decrease in the fluorescence response of cells exposed to 80 μM of (2′(3′)-O-(4-benzoyl-benzoyl)adenosine 5′-triphosephate); read-out: IC50
T1 construct: host or cells: SH-SY5Y
T1 sequence (Q99572 1-595): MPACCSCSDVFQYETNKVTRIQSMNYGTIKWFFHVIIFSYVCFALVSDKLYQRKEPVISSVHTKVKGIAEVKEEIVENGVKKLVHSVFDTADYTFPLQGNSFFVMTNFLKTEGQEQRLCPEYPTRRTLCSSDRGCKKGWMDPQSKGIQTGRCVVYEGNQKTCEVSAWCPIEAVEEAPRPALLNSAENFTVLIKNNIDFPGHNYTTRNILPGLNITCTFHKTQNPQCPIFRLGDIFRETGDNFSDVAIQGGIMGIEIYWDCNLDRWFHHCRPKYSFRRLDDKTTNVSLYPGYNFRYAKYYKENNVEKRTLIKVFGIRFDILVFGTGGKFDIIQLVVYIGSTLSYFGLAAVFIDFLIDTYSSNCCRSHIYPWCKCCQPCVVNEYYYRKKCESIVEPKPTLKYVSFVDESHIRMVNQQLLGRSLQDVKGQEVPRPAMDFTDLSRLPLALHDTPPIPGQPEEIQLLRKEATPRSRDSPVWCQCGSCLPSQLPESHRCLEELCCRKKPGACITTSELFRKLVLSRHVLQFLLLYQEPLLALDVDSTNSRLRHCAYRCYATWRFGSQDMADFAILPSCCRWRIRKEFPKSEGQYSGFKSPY
In short: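 Antagonism was measured as calcium mobilization on FLIPR^TETRA after a 1 h room-temperature compound preincubation of dye-loaded cells. Baseline from no-agonist wells was subtracted from each well's maximum RFU.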

IC50, < 2000 nM:
CC(C)CC(CNC(=O)c1cccc2nc(CN3CCC3)cn12)c1ccc(Cl)cc1 (stereo not drawn) [Compound 1034, 2-(azetidin-1-ylmethyl)-N-[2-(4-chlorophenyl)-4-methylpentyl] imidazo[1,2-a] pyridine-5-carboxamide]
CC(C)CC(CNC(=O)c1cccc2nc(C(C)N3CCCC3)cn12)c1ccc(Cl)cc1 (stereo not drawn) [Compound 1035, N-[2-(4-chlorophenyl)-4-methylpentyl]-2-(1-pyrrolidin-1-ylethyl) imidazo[1,2-a]pyridine-5-carboxamide]
CC(C)CC(CNC(=O)c1cccc2nc(CN3CCCC3)cn12)c1ccc(Cl)cc1 (stereo not drawn) [Compound 1036, N-[2-(4-chlorophenyl)-4-methylpentyl]-2-(pyrrolidin-1-ylmethyl) imidazo[1,2-a]pyridine-5-carboxamide]
CC(C)CC(CNC(=O)c1cccc2nc(C(C)N3CCOCC3)cn12)c1ccc(Cl)cc1 (stereo not drawn) [Compound 1037, N-[2-(4-chlorophenyl)-4-methylpentyl]-2-(1-morpholin-4-ylethyl) imidazo[1,2-a]pyridine-5-carboxamide]
CC(C)CC(CNC(=O)c1cccc2nc(CN3CCOCC3)cn12)c1ccc(Cl)cc1 (stereo not drawn) [Compound 1038, N-[2-(4-chlorophenyl)-4-methylpentyl]-2-(morpholin-4-ylmethyl) imidazo[1,2-a]pyridine-5-carboxamide]
CC(C)CC(CNC(=O)c1cccc2nc(CN3CC[C@@H](N(C)C)C3)cn12)c1ccc(Cl)cc1 (stereo partly drawn) [Compound 1039, N-[2-(4-chlorophenyl)-4-methylpentyl]-2-{[(3R)-3-(dimethylamino)pyrrolidin-1-yl]methyl} imidazo[1,2-a]pyridine-5-carboxamide]
O=C(NCC12CC3CC(CC(C3)C1)C2)c1cccc2nc(CCN3CCCC3)cn12 [Compound 1040, N-(adamantan-1-ylmethyl)-2-(2-pyrrolidin-1-ylethyl) imidazo [1,2-a]pyridine-5-carboxamide]
CC(C)CC(CNC(=O)c1cccc2nc(CCN3CCCC3)cn12)c1ccc(Cl)cc1 (stereo not drawn) [Compound 1041, N-[2-(4-chlorophenyl)-4-methylpentyl]-2-(2-pyrrolidin-1-ylethyl) imidazo[1,2-a]pyridine-5-carboxamide]
CC(C)CC(CNC(=O)c1cccc2nc(CCN3CCCC3)cn12)c1ccc(C(F)(F)F)cc1 (stereo not drawn) [Compound 1042, N-{4-methyl-2-[4-(Irifluoromethyl)phenyl]pentyl}-2-(2-pyrrolidin-1-ylethyl) imidazo[1,2-a]pyridine-5-carboxamide]
O=C(NCC1(c2ccc(C(F)(F)F)cc2)CCCCC1)c1cccc2nc(CN3CCCC3)cn12 [Compound 1044, 2-(pyrrolidin-1-ylmethyl)-N-({1-[4-(trifluoromethyl)phenyl]cyclohexyl}methyl) imidazo[1,2-a] pyridine-5-carboxamide]
O=C(NCC1(c2ccc(F)cc2)CCCCC1)c1cccc2nc(CN3CCCC3)cn12 [Compound 1045, N-{[1-(4-fluorophenyl)cyclohexyl]methyl}-2-(pyrrolidin-1-ylmethyl) imidazo[1,2-a]pyridine-5-carboxamide]
O=C(NCC1(c2ccc(Cl)c(F)c2)CCCCC1)c1cccc2nc(CN3CCCC3)cn12 [Compound 1046, N-{[1-(4-chloro-3-fluorophenyl)cyclohexyl]methyl}-2-(pyrrolidin-1-ylmethyl) imidazo[1,2-a]pyridine-5-carboxamide]
O=C(NCC1(c2ccc(Cl)cc2)CCCCC1)c1cccc2nc(CN3CCCC3)cn12 [Compound 1047, N-{[1-(4-chlorophenyl)cyclohexyl]methyl}-2-(pyrrolidin-1-ylmethyl) imidazo[1,2-a]pyridine-5-carboxamide]
Cc1ccc(C(CNC(=O)c2cccc3nc(CN4CCCC4)cn23)CC(C)C)cc1 (stereo not drawn) [Compound 1048, N-[4-methyl-2-(4-methylphenyl)pentyl]-2-(pyrrolidin-1-ylmethyl) imidazo [1,2-a] pyridine-5-carboxamide]
Cc1ccc(C2(CNC(=O)c3cccc4nc(CN5CCCC5)cn34)CCCCC2)cc1 [Compound 1049, N-{[1-(4-methylphenyl)cyclohexyl]methyl}-2-(pyrrolidin-1-ylmethyl) imidazo[1,2-a]pyridine-5-carboxamide]
CN1CCCC(NC(=O)Cc2cn3c(C(=O)NCC45CC6CC(CC(C6)C4)C5)cccc3n2)C1 (stereo not drawn) [Compound 1050, N-(adamantan-1-ylmethyl)-2-{2-[(1-methylpiperidin-3-yl)amino]-2-oxoethyl} imidazo[1,2-a]pyridine-5-carboxamide]
CC(C)CC(CNC(=O)c1cccc2nccn12)c1ccc(C(F)(F)F)nc1 (stereo not drawn) [Compound 1051, N-{4-methyl-2-[6-(trifluoromethyl)pyridin-3-yl]pentyl} imidazo[1,2-a]pyridine-5-carboxamide]
CC(C)CC(CNC(=O)c1cccc2ncc(Cl)n12)c1ccc(C(F)(F)F)nc1 (stereo not drawn) [Compound 1052, 3-chloro-N-{4-methyl-2-[6-(trifluoromethyl)pyridin-3-yl]pentyl} imidazo[1,2-a]pyridine-5-carboxamide]
CC(C)CC(CNC(=O)c1cccc2nc(CN3CCOCC3)cn12)c1ccc(C(F)(F)F)nc1 (stereo not drawn) [Compound 1053, N-{4-methyl-2-[6-(trifluoromethyl)pyridin-3-yl]pentyl}-2-(morpholin-4-ylmethyl) imidazo[1,2-a]pyridine-5-carboxamide]
O=C(NCC(c1ccc(Cl)cc1)N1CCCCC1)c1cccc2ncc(Cl)n12 (stereo not drawn) [Compound 1054, 3-chloro-N-[2-(4-chlorophenyl)-2-piperidin-1-ylethyl]imidazo[1,2-a]pyridine-5-carboxamide]
O=C(NCC(c1ccc(Cl)cc1)N1CCOCC1)c1cccc2ncc(Cl)n12 (stereo not drawn) [Compound 1055, 3-chloro-N-[2-(4-chlorophenyl)-2-morpholin-4-ylethyl]imidazo[1,2-a]pyridine-5-carboxamide]
O=C(NCC(c1ccc(Cl)cc1)N1CCCCC1)c1cccc2ncc(Br)n12 (stereo not drawn) [Compound 1056, 3-bromo-N-[2-(4-chlorophenyl)-2-piperidin-1-ylethyl]imidazo[1,2-a]pyridine-5-carboxamide]
O=C(NCC(c1ccc(Cl)cc1)N1CCOCC1)c1cccc2ncc(Br)n12 (stereo not drawn) [Compound 1057, 3-bromo-N-[2-(4-chlorophenyl)-2-morpholin-4-ylethyl] imidazo[1,2-a] pyridine-5-carboxamide]
O=C(NCC(c1ccc(C(F)(F)F)nc1)N1CCCCC1)c1cccc2ncc(Cl)n12 (stereo not drawn) [Compound 1058, 3-chloro-N-{2-piperidin-1-yl-2-[6-(trifluoromethyl)pyridin-3-yl]ethyl}imidazo[1,2-a]pyridine-5-carboxamide]
CCN(Cc1cn2c(C(=O)NCC34CC5CC(CC(C5)C3)C4)cccc2n1)C(=O)OC(C)OC(C)=O (stereo not drawn) [Compound 1059, 1-{[({5-[(adamantan-1-ylmethyl)carbamoyl]imidazo [1,2-a]pyridin-2-yl}methyl)(ethyl)carbamoyl]oxy} ethyl acetate]
CC(=O)OC(C)OC(=O)N[C@@H]1CCCN(C(=O)Cc2cn3c(C(=O)NCC45CC6CC(CC(C6)C4)C5)cccc3n2)C1 (stereo partly drawn) [Compound 1060, 1-({[(3R)-1-({5-[(adamantan-1-ylmethyl)carbamoyl]imidazo[1,2-a]pyridin-2-yl}acetyl)piperidin-3-yl]carbamoyl}oxy)ethyl acetate]
CCOC(=O)c1cn2cc(C(=O)NCC34CC5CC(CC(C5)C3)C4)ccc2n1 [Compound 1061, ethyl 6-[(adamantan-1-ylmethyl)carbamoyl] imidazo [1,2-a]pyridine-2-carboxylate]
O=C(NCC12CC3CC(CC(C3)C1)C2)c1ccc2nc(CCl)cn2c1 [Compound 1062, N-(adamantan-1-ylmethyl)-2-(chloromethyl) imidazo [1,2-a]pyridine-6-carboxamide]
CCOC(=O)Cc1cn2cc(C(=O)NCC34CC5CC(CC(C5)C3)C4)ccc2n1 [Compound 1063, ethyl {6-[(adamantan-1-ylmethyl)carbamoyl]imidazo[1,2-a]pyridin-2-yl} acetate]
O=C(NCC12CC3CC(CC(C3)C1)C2)c1ccn2cc(CCl)nc2c1 [Compound 1064, N-(adamantan-1-ylmethyl)-2-(chloromethyl)imidazo [1,2-a]pyridine-7-carboxamide]
